For assay [1], the system named is Escherichia coli ATCC 25922. Briefly: ≥ marks a high value that may be exact or a test limit, other limits are often not marked, values filed in µg/mL are converted to µM.
Assay [2] deals with Staphylococcus aureus ATCC 25923. The assay is described as above.

Data on six compounds can be found in DBAASP.

SMILES strings stand for the structures. Values after ≈ are worked out from the molar mass of the structure shown.

As usually defined, the MIC is the least concentration at which growth counts as inhibited. Read a high MIC as a less susceptible organism. Turning to `CC(C)C[C@H](NC(=O)CN)C(=O)N[C@@H](Cc1ccccc1)C(=O)N[C@@H](CC(=O)O)C(=O)N[C@H](C(=O)N[C@H](C(=O)N[C@@H](CCCCN)C(=O)NCC(=O)N[C@H](C(=O)N[C@@H](CC(C)C)C(=O)N[C@@H](CCCCN)C(=O)NCC(=O)N[C@@H](C)C(=O)NCC(=O)N[C@@H](CCCCN)C(=O)N[C@@H](CC(N)=O)C(=O)N[C@H](C(=O)N[C@@H](C)C(=O)NCC(=O)N[C@@H](CO)C(=O)N[C@@H](CC(C)C)C(=O)N[C@@H](CC(C)C)C(=O)N[C@@H](CCC(=O)O)C(=O)N[C@@H](CCC(N)=O)C(=O)N[C@@H](CC(C)C)C(=O)N[C@@H](CCCCN)C(=O)N[C@H]1CSSC[C@@H](C(=O)O)NC(=O)CNC(=O)CNC(=O)[C@H](CO)NC(=O)[C@H](CC(C)C)NC(=O)[C@H](CCCCN)NC1=O)C(C)C)C(C)C)C(C)C)C(C)C` [GLFDVVKGVLKGAGKNVAGSLLEQLKCKLSGGC], the MIC in assay [1] and in assay [2] was 30 µM (≈ 98.6 µg/mL) in each case. Consider `CC[C@H](C)[C@H](NC(=O)[C@H](CCC(N)=O)NC(=O)[C@H](CCCCN)NC(=O)[C@@H](NC(=O)[C@H](CC(C)C)NC(=O)[C@H](CCC(N)=O)NC(=O)[C@H](C)NC(=O)[C@H](Cc1ccccc1)NC(=O)[C@@H](NC(=O)[C@H](CC(=O)O)NC(=O)[C@H](CCCCN)NC(=O)CNC(=O)[C@@H](NC(=O)CNC(=O)[C@@H](NC(=O)[C@@H](NC(=O)[C@H](Cc1ccccc1)NC(=O)[C@H](CC(=O)O)NC(=O)[C@H](CC(C)C)NC(=O)[C@H](CC(C)C)NC(=O)CN)C(C)C)[C@@H](C)O)C(C)C)[C@@H](C)CC)[C@@H](C)CC)C(N)=O` [GLLDFVTGVGKDIFAQLIKQI], for which the MIC in assay [1] and in assay [2] was 64 µM (≈ 146 µg/mL) each time. Regarding `CC[C@H](C)[C@H](NC(=O)[C@@H](NC(=O)[C@H](CCCCN)NC(=O)[C@H](CC(C)C)NC(=O)[C@H](CC(C)C)NC(=O)CN)C(C)C)C(=O)N[C@@H](CCCCN)C(=O)N[C@H](C(=O)N[C@@H](CC(C)C)C(=O)N[C@@H](CC(C)C)C(N)=O)C(C)C` [GLLKVIKVLL], the MIC in assay [1] amounted to 25.6 µM (≈ 28 µg/mL); in assay [2] it was 12.8 µM (≈ 14 µg/mL). For `CC[C@H](C)[C@H](NC(=O)[C@@H](NC(=O)[C@H](CC(N)=O)NC(=O)[C@H](CC(C)C)NC(=O)[C@H](CC(C)C)NC(=O)CN)C(C)C)C(=O)N[C@@H](CCCCN)C(=O)N[C@@H](CC(=O)O)C(=O)N[C@H](C(=O)N[C@@H](C)C(=O)N[C@@H](CCC(N)=O)C(=O)N[C@@H](CC(N)=O)C(=O)N[C@@H](CC(C)C)C(=O)N[C@@H](Cc1ccccc1)C(=O)N[C@@H](C)C(=O)N[C@@H](C)C(=O)N[C@@H](C)C(=O)N[C@@H](CC(C)C)C(=O)N[C@@H](CC(=O)O)C(=O)N[C@@H](CCCCN)C(=O)N[C@@H](CC(C)C)C(=O)N[C@@H](CCCCN)C(=O)N[C@H]1CSSC[C@@H](C(=O)N[C@@H](CC(N)=O)C(=O)O)NC(=O)[C@H](CCCCN)NC(=O)[C@H]([C@@H](C)O)NC(=O)[C@H](C(C)C)NC(=O)[C@H](CCCCN)NC1=O)[C@@H](C)O` [GLLNVIKDTAQNLFAAALDKLKCKVTKCN], the MIC in assay [1] was 80 µM (≈ 251 µg/mL); in assay [2], above 160 µM.

In turn, `CC(C)C[C@H](NC(=O)[C@H](C)NC(=O)[C@@H](N)CO)C(=O)N[C@H](C(=O)NCC(=O)N[C@H]1CSSC[C@@H](C(=O)N[C@@H](Cc2ccccc2)C(=O)NCC(=O)N[C@@H](CCCN=C(N)N)C(=O)NCC(=O)O)NC(=O)[C@@H]2CCCN2C(=O)[C@H](CCCCN)NC(=O)[C@@H]2CCCN2C(=O)[C@@H]2CCCN2C(=O)[C@H](Cc2c[nH]c3ccccc23)NC(=O)[C@H](CO)NC(=O)[C@H](CCCCN)NC(=O)[C@H]([C@@H](C)O)NC(=O)[C@H](Cc2c[nH]c3ccccc23)NC1=O)C(C)C` [SALVGCWTKSWPPKPCFGRG] displayed a minimum inhibitory concentration (MIC) in assay [2] of 23 µM (≈ 50 µg/mL). `CC(C)C[C@H](NC(=O)[C@H](Cc1ccccc1)NC(=O)[C@@H]1CCCN1C(=O)[C@H](Cc1c[nH]c2ccccc12)NC(=O)[C@H](C)NC(=O)[C@H](Cc1c[nH]c2ccccc12)NC(=O)[C@@H]1CCCN1C(=O)[C@H](Cc1ccccc1)NC(=O)[C@H](CCCN=C(N)N)NC(=O)[C@H](CCCN=C(N)N)NC(=O)[C@@H](N)C(C)C)C(=O)N[C@@H](CCCN=C(N)N)C(=O)N[C@@H](CCCN=C(N)N)C(N)=O` [VRRFPWAWPFLRR] came in with an MIC in assay [1] of 16 µM (≈ 28.6 µg/mL).
